Source: PubChem BioAssay (NCI)
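Assay format: 96-well plates, 48-hour exposure. The concentration for full growth arrest is given as TGI.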 Where a SMILES comes first, the peptide text is derived from it. [ ]: non-standard residue; d: D form. The star is where a group is joined. ξ: configuration not given here. X3 = COc1ccc(C(N*)c2ccc(OC)cc2)cc1; NMeF = CN[C@@H](Cc1ccccc1)C(=O)O; NMeD = CN[C@@H](CC(=O)O)C(=O)O; NMeV = CN[C@H](C(=O)O)C(C)C; ξNMeV = CNC(C(=O)O)C(C)C; Boc = CC(C)(C)OC(=O)*; ξNMeA = CNC(C)C(=O)O; ξV = CC(C)C(N)C(=O)O

Columns and labels:
Experiment in all cases: NCI-60 cell line screen, 48 h
[1] = system: MDA-N
[2] = system: M19-MEL melanoma
[3] = system: LXFL 529 NSCLC
[4] = system: DMS 114 small cell lung
[5] = system: RXF-631 renal
[6] = system: HOP-18 NSCLC
[7] = system: XF 498 CNS
[8] = system: SN12K1 renal

Row | SMILES | TGI [1] | TGI [2] | TGI [3] | TGI [4] | TGI [5] | TGI [6] | TGI [7] | TGI [8]
1 | O=S(=O)(c1ccccc1)N1CCN(S(=O)(=O)c2ccccc2)c2ccccc21 | > 100 µM | – | – | – | – | – | – | –
2 | O=C1CN(c2cccc(Cl)c2)C(=O)CN1CCN1CC(=O)N(c2cccc(Cl)c2)CC1=O | > 100 µM | – | – | – | – | – | – | –
3 | CCOC(=O)C1=C(C(=O)OCC)C2c3ccccc3C=CN2C(C(=O)OCC)=C(SC)S1 (stereo not given) | – | > 100 µM | > 100 µM | > 100 µM | – | – | – | –
4 | O=C(O)c1nc2nc(Cl)c(Cl)nc2[nH]1 | > 100 µM | – | – | – | – | – | – | –
5 | O=S(=O)(N/N=C/c1cccc(/C=N/NS(=O)(=O)c2ccccc2)c1)c1ccccc1 | – | > 100 µM | > 100 µM | > 100 µM | > 100 µM | > 100 µM | – | –
6 | CCCCN(CCCC)C(=O)C(=O)C(C(=O)c1ccc(OC)cc1)c1ccc(OC)cc1 (stereo not given) | – | – | > 100 µM | > 100 µM | > 100 µM | > 100 µM | – | –
7 | COc1ccc(OC)c(N2CC(N)C2=O)c1 (stereo not given) | – | > 100 µM | – | – | > 100 µM | > 100 µM | > 100 µM | –
8 | COc1cc(C2CC(C)(O)Oc3cc4c(cc32)OCO4)cc(OC)c1OC (stereo not given) | 0.43 µM | – | – | – | – | – | – | –
9 | Cc1ccc(Oc2ccc(C)cc2N)cc1 | – | > 100 µM | > 100 µM | > 100 µM | – | > 100 µM | – | –
10 | CC(=O)NNc1nc(C)c(C(=O)/C=C/c2ccc(NC(C)=O)cc2)s1 | – | > 100 µM | – | – | > 100 µM | > 100 µM | – | –
11 | CC(=O)O/N=C(/C)c1ccccc1O | – | > 100 µM | > 100 µM | > 100 µM | – | > 100 µM | > 100 µM | –
12 | O=C(Nc1ccccc1-c1nn(C(=S)Nc2ccccc2)c(=S)n(C(=S)Nc2ccccc2)c1=O)C(F)(F)F | – | > 94.9 µM | 54 µM | 38.9 µM | – | > 100 µM | 61.5 µM | –
13 | COC(=O)C(CCCN1C(=O)c2ccccc2C1=O)C(=O)OC | – | > 100 µM | > 100 µM | > 100 µM | – | > 100 µM | > 100 µM | –
14 | COc1ccc(C(NC(=O)C[C@@H](C(=O)N(C)C(C)C(=O)O)N(C)C(=O)[C@@H]2CCCN2C(=O)[C@H](C(C)C)N(C)C(=O)C(C(C)C)N(C)C(=O)[C@H](Cc2ccccc2)N(C)C(=O)C(NC(=O)OC(C)(C)C)C(C)C)c2ccc(OC)cc2)cc1 (stereo not given in full) (Boc-[ξV][NMeF][ξNMeV][NMeV]P[NMeD](X3)[ξNMeA]-OH) | 32.7 µM | 34.4 µM | 27.9 µM | 33.4 µM | – | – | 29.5 µM | –
15 | CC(C)(C)c1cc2c(O)c3cccc4c(=O)c5cccc6c5-c(c34)c2c(c1)c6=O | – | > 100 µM | > 100 µM | – | – | > 100 µM | 88.5 µM | –
16 | CC1(C)OC1COc1c2occc2cc2ccc(=O)oc12 (stereo not given) | > 100 µM | – | – | – | – | – | – | –
17 | Cc1ccc(/C=C/C(=O)CCN(C)C)cc1 | – | 38.7 µM | 34.2 µM | 32.5 µM | – | 38.4 µM | 28.5 µM | –
18 | Oc1[nH]c2ccccc2c1N=Nc1nc(-c2ccc(Br)cc2)cs1 | > 100 µM | – | – | – | – | – | – | –
19 | C/C(=N/Nc1ccc([N+](=O)[O-])cc1[N+](=O)[O-])C(CC(C(=O)NCc1ccccc1)/C(C)=N\Nc1ccc([N+](=O)[O-])cc1[N+](=O)[O-])C(=O)NCc1ccccc1 (stereo not given) | – | 23.9 µM | 23.6 µM | 23.8 µM | 20 µM | 9.48 µM | – | –
20 | Cc1cccc(C)c1NC(=O)CCCC(=O)C1/C(=N/NC(=O)CC#N)CCC/C1=N\NC(=O)CC#N (stereo not given) | – | > 100 µM | > 100 µM | > 100 µM | > 100 µM | > 100 µM | > 100 µM | –
21 | CCOP(=O)(OCC)C(F)(F)c1ccc(CC(NC(=O)OC(C)(C)C)C(=O)O)cc1 (stereo not given) | > 10 µM | – | – | – | – | – | – | –
22 | NC(=O)C(=Cn1c(=S)[nH]c2ccc([N+](=O)[O-])cc21)C(N)=O | > 100 µM | – | – | – | – | – | – | –

Row | SMILES | TGI [1] | TGI [2] | TGI [3] | TGI [4] | TGI [5] | TGI [6] | TGI [7] | TGI [8]
23 | CC(C)c1cc2c(cc1S(=O)(=O)O)[C@@]1(C)CCC[C@@](C)(C(=O)O)C1CC2 (stereo not given in full) | > 100 µM | – | – | – | – | – | – | –
24 | COc1ccc(C)cc1-c1cc(Sc2ccccc2)c(-c2cc(C)ccc2OC)o1 | – | > 31.6 µM | > 31.6 µM | > 31.6 µM | > 31.6 µM | > 31.6 µM | > 100 µM | –
25 | CC(=O)CC(OC(C)=O)C1=CCC2C(CC1C)OC(=O)C2C (stereo not given) | > 100 µM | – | – | – | – | – | – | –
26 | CC(C)=CCC(O)C1=CC(=O)c2c(O)ccc(O)c2C1=O (stereo not given) | 2.3 µM | – | – | – | – | – | – | –
27 | C/C(=C\CBr)CCC(Br)C(C)(C)Br (stereo not given) | > 100 µM | – | – | – | – | – | – | –
28 | COc1nc(NC2OC(COC(C)=O)C(OC(C)=O)C(OC(C)=O)C2OC(C)=O)c2c(OC(C)=O)cc(=O)oc2n1 (stereo not given) | – | > 100 µM | > 100 µM | > 100 µM | – | > 100 µM | > 100 µM | –
29 | CCc1c(OC(C)=O)c2c(NC3OCC(OC(C)=O)C(OC(C)=O)C3OC(C)=O)nc(SC)nc2oc1=O (stereo not given) | – | > 100 µM | > 100 µM | – | > 100 µM | > 100 µM | > 100 µM | –
30 | C/C(CCn1[nH]c(=O)ccc1=O)=N\NC(=O)C(=O)NN | – | > 100 µM | > 100 µM | – | > 100 µM | > 100 µM | > 100 µM | –
31 | CC(=O)N(C(=O)CC(=O)N1N=C(c2ccccc2)C(N=Nc2ccccc2[N+](=O)[O-])C1=O)c1ccc(Cl)cc1 (stereo not given) | > 10 µM | – | – | – | – | – | – | –
32 | Cc1ccc(/C=C/C(=O)c2cccc3ccccc23)cc1 | – | 49.9 µM | 25.3 µM | – | – | – | 28.7 µM | –
33 | O=C1C=CC(=O)c2nc3c(cc21)CCC3 | – | 31.2 µM | 29 µM | 42.5 µM | > 100 µM | 39.8 µM | 32.9 µM | –
34 | O=[N+]([O-])c1ccc(Cl)cc1N/N=C/c1ccnc2ccccc12 | > 100 µM | – | – | – | – | – | – | –
35 | CC(=O)OCCOCNC(=S)N/N=C(\C)c1cnccn1 | – | 46.3 µM | > 100 µM | 51.4 µM | – | 97.5 µM | > 100 µM | –
36 | COC(=O)CC(c1ccccc1)C1(c2ccccc2)SCCS1 (stereo not given) | – | > 290 µM | > 290 µM | > 290 µM | > 290 µM | > 290 µM | > 290 µM | –
37 | O=C1CCC2(c3ccc(Cl)cc3)Nc3ccncc3N12 (stereo not given) | > 10 µM | – | – | – | – | – | – | –
38 | O=S(=O)(c1ccccc1)c1cccc2c1NCCC2 | > 100 µM | – | – | – | – | – | – | –
39 | CC(C)(C)c1cc2ccc(C(N)=O)cc2c(=O)[nH]1 | – | > 100 µM | > 100 µM | > 100 µM | > 100 µM | > 100 µM | – | –
40 | CN(C)CCn1c2c3ccccc3ccc2c2oc(=O)c3ccccc3c21 | – | 25 µM | 17.2 µM | – | 31.5 µM | 35.3 µM | 30.1 µM | –
41 | CN(C)CC1CC/C(=C\c2ccc(O)cc2)C1=O (stereo not given) | 6.8 µM | 7.55 µM | 3.45 µM | 23.5 µM | – | 15.9 µM | 11.3 µM | 3.4 µM
42 | NC(=O)c1ccccc1NC(=O)C(=O)C(C(=O)c1ccc(Cl)c(Cl)c1)C1OC(=O)c2ccccc21 (stereo not given) | – | – | > 100 µM | – | – | > 100 µM | > 100 µM | –
43 | Cc1cc2c(C)[nH]nc2c(C(=O)O)c1C | – | > 100 µM | > 100 µM | > 100 µM | – | – | > 100 µM | –
44 | O=C(O)c1ccc2c(c1C(=O)O)C(=O)OC2(c1ccc(O)cc1)c1ccc(O)cc1 | > 100 µM | – | – | – | – | – | – | –
